ChEMBL document CHEMBL1154916, “Insight into binding of phosphodiesterase-9A selective inhibitors by crystal structures and mutagenesis” (J Med Chem, 2010)
pIC50: −log10 of the molar value.

Experiments:
[1] = biological target: High affinity cGMP-specific 3',5'-cyclic phosphodiesterase 9A (Homo sapiens, UniProt O76083); test: Inhibition of human PDE9A expressed in Escherichia coli BL21 by liquid scintillation counting
[2] = Inhibition of PDE9

Sequence of High affinity cGMP-specific 3',5'-cyclic phosphodiesterase 9A (O76083 whole entry): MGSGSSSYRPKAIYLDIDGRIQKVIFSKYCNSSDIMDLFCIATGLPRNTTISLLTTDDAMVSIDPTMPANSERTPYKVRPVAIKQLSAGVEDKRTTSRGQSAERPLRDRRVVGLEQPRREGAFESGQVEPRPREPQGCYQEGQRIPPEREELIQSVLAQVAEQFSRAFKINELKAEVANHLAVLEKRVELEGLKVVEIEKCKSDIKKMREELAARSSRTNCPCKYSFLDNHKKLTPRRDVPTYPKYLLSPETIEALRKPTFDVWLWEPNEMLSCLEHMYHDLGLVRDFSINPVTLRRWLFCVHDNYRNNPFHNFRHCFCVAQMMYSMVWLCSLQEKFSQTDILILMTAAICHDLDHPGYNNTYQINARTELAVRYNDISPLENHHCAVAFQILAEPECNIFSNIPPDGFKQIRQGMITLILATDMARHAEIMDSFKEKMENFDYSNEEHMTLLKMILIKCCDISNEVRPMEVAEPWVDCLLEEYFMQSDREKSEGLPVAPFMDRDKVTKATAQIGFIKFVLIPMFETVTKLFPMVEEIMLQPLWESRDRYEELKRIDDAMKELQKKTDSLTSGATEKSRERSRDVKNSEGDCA

pIC50 [1]	pIC50 [2]	Compound
< 3.70		CC(C)Cn1c(=O)n(C)c(=O)c2[nH]cnc21 [ISOBUTYLMETHYLXANTHINE]
	7.26	C[C@H](Cc1nc2c(cnn2-c2ccccc2Cl)c(=O)[nH]1)C(F)(F)F
